# In patent publication US20160303127A1, “COMBINATION THERAPY WITH C-MET AND EGFR ANTAGONISTS” (Genentech, Inc., priority 2008, published 2016):
# Values joined by “and” are separate entries in the source; they are usually repeats but may differ in a detail not shown here. Equal entries are not always repeated. “Also recorded” adds a separate entry of the source.
# B1: MetMAb: Anti-c-met monovalent monoclonal antibody MetMAb (rhuOA5D5v2) (WO2007/063816) (antibody, chains of the INN, looked up, V domains shown)
# VH: EVQLVESGGGLVQPGGSLRLSCAASGYTFTSYWLHWVRQAPGKGLEWVGMIDPSNSDTRFNPNFKDRFTISADTSKNTAYLQMNSLRAEDTAVYYCATYRSYVTPLDYWGQGTLVTVSS
# VL: DIQMTQSPSSLSASVGDRVTITCKSSQSLLYTSSQKNYLAWYQQKPGKAPKLLIYWASTRESGVPSRFSGSGSGTDFTLTISSLQPEDFATYYCQQYYAYPWTFGQGTKVEIK
# modifications: one-armed
# Tests used:
# NCI-H596 cells = assay: NCI-H596 cell viability assay (Celltiter-Glo) with TGFα +/- HGF; format: cell-based, human
# Method: Cells: NCI-H596 cells were obtained from the American Type Culture Collection (ATCC) and were maintained in RPMI 1640 supplemented with 10% fetal bovine serum (FBS; Sigma, St. Louis, Mo.), and 2 mM L-glutamine. Cell assay media was changed as described below depending upon the experiment.
# Therapeutics and Growth factors: Erlotinib and MetMAb were from Genentech, Inc., as described above. HGF and TGFα were generated at Genentech.
# Cell Viability Assays: For cell viability assays, cells were plated in quadruplicate at 1×10^3 cells per well in 384-well plates in RPMI containing 0.5% FBS (assay medium) overnight, prior to stimulation with assay medium containing 3 nM TGF-a+/−HGF. Erlotinib was added at multiple concentrations and 72 hours later, cell viability was measured using the Celltiter-Glo Luminescent Cell Viability Assay (Promega, Madison, Wis.).
# To determine whether activation of the c-met pathway could change the response of NCI-N596 cells to erlotinib, cells were stimulated with TGFα, treated with erlotinib and/or HGF, then cell viability was assayed.
# c-met = biological target: T1, c-met (Homo sapiens, UniProt P08581, DEL964-1010); assay: c-met phosphorylation in NCI-H596 hu-HGF-Tg-SCID xenograft tumors (IP/immunoblot); format: in vivo, mouse xenograft; conditions: MetMAb 30 mg/kg 24 h, erlotinib 150 mg/kg 6 h prior to harvest, average of 5 animals
# T1 construct: endogenous in cells; host or cells: NCI-H596 (human NSCLC) cells grown as xenograft tumours in hu-HGF-Tg-SCID mice; tumour lysate, IP and immunoblot
# Method: Tumors were allowed to grow to 200-300 mm^3 prior to treatment. Dosing was performed as described in Table 8. Briefly, MetMAb (30 mg/kg) or MetMAb buffer was dosed at time zero hours (0 hr) and methylcellulose tween vehicle (MCT) or erlotinib (150 mg/kg) was dosed at time 18 hours (18 hr). Mice were euthanized and tumors and plasma collected at time 24 hours (24 hr). Tumors were snap frozen in liquid nitrogen and then kept at −70° C. until they were processed for immunoprecipitation and immunoblotting.
# Immunoprecipitations and Immunoblotting: To process tumors for protein analysis, tumors were first homogenized using a glass dounce with lysis buffer (Cell Signaling Technology, Inc., Danvers, Mass.), supplemented with 1 mM PMSF, additional protease inhibitor cocktail, and phosphatase inhibitor cocktail I and II (Sigma, Inc., St. Louis, Mo.). Lysates were incubated on ice for one hour and then centrifuged at 14,000×g for five minutes and supernatants collected. Protein concentrations were determined using the BCA™ Protein Assay Kit (Pierce, Inc., Rockford, Ill.) and samples were immunoblotted. […] For direct Western blots, 50 μg of tumor lysate was loaded per lane. Samples were then analyzed by SDS-PAGE and immunoblotting. […] Goat-anti-mouse-IRdye800 (Rockland Immunochemicals, Inc., Gilbertsville, Pa.) and goat-anti-rabbit-AlexaFluor680 (Molecular Probes, Inc., Eugene, Oreg.) were used as secondary antibodies. Immunoblots were imaged and phospho-protein levels were quantified and normalized to total protein levels (e.g. pEGFR over total EGFR) using an Odyssey imager (LI-COR Biosciences, Lincoln, Nebr.).
# Twenty hu-HGF-Tg-SCID mice were inoculated with NCI-H596 cells and tumors established, as previously described. Once tumors reached sizes between 200-300 mm^3, mice were evenly grouped into four groups based upon tumor volume and dosing was begun (Table 8). MetMAb was dosed 24 hours prior to tumor harvest whereas erlotinib was dosed 6 hours prior to harvest. Dosing times were selected based on the relative half-life of each therapeutic agent. […]
Molecule,"sensitivity (response) of cells to erlotinib in the presence of HGF (NCI-H596 cells; TGFα plus HGF 0.5 to 50 ng/ml, 72 hours)","cell viability when grown in the presence of erlotinib and TGFα (NCI-H596 cells; TGFα, no HGF)",pMet/total Met (c-met phosphorylation) (c-met),pMet/total Met (c-met phosphorylation) (c-met; listed as Erlotinib),"effect of MetMAb on erlotinib sensitivity (cell viability) (NCI-H596 cells; TGFα and HGF (50 ng/ml), MetMAb 1 μM, varying erlotinib)"
"C#Cc1cccc(Nc2ncnc3cc(OCCOC)c(OCCOC)cc23)c1 [erlotinib, N-(3-ethynylphenyl)-6,7-bis(2-methoxyethoxy)-4-quinazolinamine]",Reduction in relative response; also recorded: dramatically reduced in a dose-dependent manner; also recorded: attenuated response,reduced cell viability,did not reduce c-met phosphorylation,157 (±103.4) % of vehicle control,–
B1,–,–,12% (+/−3.6%) % of vehicle control and 12 (±3.5) % of vehicle control,–,dramatically restored erlotinib sensitivity
